# Columns and labels:
# CpomOR6a = assay: Single sensillum recordings, CpomOR6a expressed in Drosophila at1 OSNs; type: cell-based, Cydia pomonella; conditions: for Spike/s: 10 μg per stimulus
# From the text: (§1) To perform heterologous expression in D. melanogaster OSNs, CpomORs were amplified using primers in Table 2 and purified PCR products were cloned into the PCR8/GW/TOPO plasmid (Invitrogen) following the recommended protocol. Cassettes with inserts were then transferred from their PCR8/GW/TOPO plasmids to the destination vector (pUASg-HA.attB, constructed by E. Furger and J. Bischof, kindly provided by the Basler group, Zürich), using the Gateway LR Clonase II kit (Invitrogen). The integrity and orientation of inserts was confirmed by sequencing (Sanger sequencer, 3730xl). Transformant UAS-CpomOR3 and UAS-CpomOR1 lines were generated by Best Gene (Chino Hills, CA, USA), using the PhiC31 integrase system, while the transformant UAS-CpomOR6a line was generated in our labs. Briefly, recombinant pUASg-HA.attB-CpomOR plasmids were injected into embryos of a D. melanogaster line containing an attP insertion site within the third chromosome (genotype y1 M{vas-int.Dm}ZH-2A w*; M{3xP3-RFP.attP}ZH-86Fb), leading to non-random integration. To drive expression of CpomORs in at1 OSNs in place of the endogenous receptor Or67d, transformant UAS-CpomOR lines were crossed to the knock-in Or67d^GAL4 line (kindly provided by Barry Dickson) to generate double homozygous lines w^+;UAS-CpomOR; Or67d^GAL4. Additionally, to drive expression of CpomOR3 in ab3A OSNs, the UAS-CpomOR3 line was crossed to the Δhalo;Or22a-Gal4 mutant line[20][57]. To verify insertion of UAS-CpomORs constructs into the genome, gDNA was extracted and used as template in PCR with primers for the full ORF of CpomORs (Table 2).
# (§2) CpomOR1 and CpomOR6a expressed in at1 OSNs, and CpomOR3 expressed in ab3A OSNs, were tested through single sensillum recordings (SSR). Three to 8-day-old flies were immobilized in 100 μL pipette tips with only the top half of the head protruding. The left antenna of each insect was gently pushed with a glass capillary against a double-sided adhesive tape placed on a piece of glass. This piece of glass and the pipette tip were fixed with dental wax on a microscope slide. Electrolytically sharpened tungsten electrodes (Harvard Apparatus Ltd, Edenbridge, United Kingdom) were used to penetrate the insect´s body. The reference electrode was manually inserted in the right eye of the fly, while the recording electrode was manoeuvred with a DC-3K micromanipulator equipped with a PM-10 piezo translator (Märzhäuser Wetzler GmbH, Wetzler, Germany) and inserted at the base of the determined sensilla. Signals coming from the olfactory sensory neurons were amplified 10 times with a probe (INR-02, Syntech, Hilversum, the Netherlands), digitally converted through an IDAC-4-USB (Syntech) interface, and visualized and analysed with the software Autospike v. 3.4 (Syntech). A constant flow of 0.65 m/s of humidified air (charcoal-filtered) was delivered through a glass tube to the antenna. The panel of odorants was given to the insect by inserting pipettes containing a piece of filter paper with the correspondent stimulus in a lateral hole of the glass tube and puffing a flow of 2.5 mL of air during 0.5 s through the pipette. For CpomOR1 and CpomOR6a the panel of odorants was prepared by applying 10 μL of a solution of 1.0 μg/μL of the compounds in Supplementary Dataset S2 and Supplementary Dataset S3, for a total amount of 10 μg per stimulus. In the case of CpomOR3, a similar dilution process was used for the dose response experiments of ethyl-(E,Z)-2,4-decadienoate and methyl-(E,Z)-2,4-decadienoate, as well for dose response of experiments of codlemone acetate in CpomOR6a. Compounds were diluted from concentrations ranging from 0.01 ng/μL to 10 μg/μL in decadic steps, allowing reaching concentrations from 100 pg to 100 μg per stimulus when 10 μL of the dilution was applied in the piece of filter paper. […]
# CpomOR1 = assay: Single sensillum recordings, CpomOR1 expressed in Drosophila at1 OSNs; type: cell-based, Cydia pomonella
# From the text: as §1, §2
# [1] = replicate 1, 10 μg per stimulus
# [2] = replicate 2, 10 μg per stimulus
# [3] = replicate 3, 10 μg per stimulus
# [4] = replicate 4, 10 μg per stimulus
# [5] = replicate 5, 10 μg per stimulus
SMILES,Spike/s (CpomOR6a; replicate 1),Spike/s (CpomOR6a; replicate 2),Spike/s (CpomOR6a; replicate 3),Spike/s (CpomOR6a; replicate 4),Spike/s (CpomOR6a; replicate 5),Spike/s (CpomOR6a; replicate 6),Spike/s (CpomOR6a; replicate 7),Spike/s (CpomOR6a; replicate 8),Spike/s (CpomOR6a; replicate 9),Spikes/s (CpomOR1; [1]),Spikes/s (CpomOR1; [2]),Spikes/s (CpomOR1; [3]),Spikes/s (CpomOR1; [4]),Spikes/s (CpomOR1; [5]),other results
"C/C=C/C=C/CCCCCCCOC(C)=O [codlemone acetate, (E,E)-8,10-dodecadien-1-yl acetate]",46 Spike/s,50 Spike/s,44 Spike/s,54 Spike/s,80 Spike/s,46 Spike/s,82 Spike/s,62 Spike/s,58 Spike/s,2 Spikes/s,4 Spikes/s,4 Spikes/s,2 Spikes/s,4 Spikes/s,"response compared with the solvent (CpomOR6a; 10 μg doses, Mann-Whitney U Test, p < 0.05): strongest response significantly different from the solvent; threshold for detection (CpomOR6a; dose response, dose per stimulus): 1.0 microgram"
"C/C=C/C=C/CCCCCCCO [codlemone, (E,E)-8,10-dodecadien-1-ol]",0 Spike/s,0 Spike/s,-4 Spike/s,6 Spike/s,0 Spike/s,2 Spike/s,14 Spike/s,0 Spike/s,2 Spike/s,6 Spikes/s,2 Spikes/s,0 Spikes/s,-12 Spikes/s,0 Spikes/s,"Spikes/s (CpomOR1; replicate 1, 100 ng): -4 Spikes/s; Spikes/s (CpomOR1; replicate 2, 100 ng): 2 Spikes/s; Spikes/s (CpomOR1; replicate 3, 100 ng): 2 Spikes/s; Spikes/s (CpomOR1; replicate 4, 100 ng): -8 Spikes/s; Spikes/s (CpomOR1; replicate 5, 100 ng): -4 Spikes/s"

# Source: article PMC5259778, “Candidate pheromone receptors of codling moth Cydia pomonella respond to pheromones and kairomones” (Scientific Reports, 2017)
